Measured values as given in the supplement of paper PMC11061612.

What was measured:
[1] = system: NCI-H1648 (Lung Adenocarcinoma); assay: combination Emax (second highest fraction inhibited in the dose matrix, 72 h); higher = more inhibition; extreme values may be limits of the assay
Outline: (§1)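 Cell lines in DMEM/F12 or RPMI with 10% FBS were plated in 1536-well plates, held 24 hours at 37°C, 5% CO2, then given two-drug dose matrices for 72 hours (DMSO typically 0.2%). Viability was read by CellTiter-Glo 2.0 luminescence and scaled as inhibition from 0 (vehicle wells) to 1 (blank wells). Combination Emax is the second-highest inhibition in the matrix; Bliss excess is observed combination effect minus expected EA + EB − EA·EB, EA and EB being single-agent effects.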

[2] = system: TK (B-Cell Non-Hodgkin's Lymphoma); assay: as above
Outline: as §1

[3] = system: M14 (Melanoma); assay: as above
Outline: as §1

[4] = system: DK-MG (Glioblastoma); assay: as above
Outline: as §1

[5] = system: NCI-H1048 (Small Cell Lung Carcinoma); assay: as above
Outline: as §1

[6] = system: NCI-H1944 (Lung Adenocarcinoma); assay: as above
Outline: as §1

[7] = system: SK-MEL-24 (Melanoma); assay: as above
Outline: as §1

[8] = system: JJN-3 (Plasma Cell Myeloma); assay: as above
Outline: as §1

[9] = system: BC-1 (B-Cell Non-Hodgkin's Lymphoma); assay: as above
Outline: as §1

[10] = system: MG-63 (Osteosarcoma); assay: as above
Outline: as §1

[11] = system: C32 (Melanoma); assay: as above
Outline: as §1

[12] = system: ATN-1 (T-Lymphoblastic Leukemia); assay: as above
Outline: as §1

[13] = system: Daudi (Burkitt's Lymphoma); assay: as above
Outline: as §1

[14] = system: SBC-3 (Small Cell Lung Carcinoma); assay: as above
Outline: as §1

[15] = system: HT-144 (Melanoma); assay: as above
Outline: as §1

[16] = system: CAL-85-1 (Breast Carcinoma); assay: as above
Outline: as §1

[17] = system: SW1463 (Colorectal Carcinoma); assay: as above
Outline: as §1

[18] = system: M14 (Melanoma); assay: Bliss excess, mean over the matrix (fraction); higher = more synergy
Outline: as §1

[19] = system: RVH-421 (Melanoma); assay: combination Emax (second highest fraction inhibited in the dose matrix, 72 h); higher = more inhibition; extreme values may be limits of the assay
Outline: as §1

[20] = system: RVH-421 (Melanoma); assay: Bliss excess, mean over the matrix (fraction); higher = more synergy
Outline: as §1
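For Bliss excess, mean over the matrix in this document: after 72 h of two-drug dosing.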

Row | SMILES | combination Emax [1] | combination Emax [2] | combination Emax [3] | combination Emax [4] | combination Emax [5] | combination Emax [6] | combination Emax [7] | combination Emax [8] | combination Emax [9] | combination Emax [10] | combination Emax [11] | combination Emax [12] | combination Emax [13] | combination Emax [14] | combination Emax [15] | combination Emax [16] | combination Emax [17] | Bliss excess [18] | combination Emax [19] | Bliss excess [20]
1 | CN(C)CCCOc1ccc(-c2ccc3ncc4c(c3c2)n(C2CCOCC2)c(=O)n4C)cn1 [AZD0156] + O=C(c1cc(Cc2n[nH]c(=O)c3ccccc23)ccc1F)N1CCN(C(=O)C2CC2)CC1 [Olaparib] (first compound max 3 µM, partner max 3 µM) | 0.396 | 0.18 | 0.365 | 0.41 | 0.352 | 0.49 | 0.227 | 0.213 | 0.566 | 0.548 | 0.164 | 0.393 | 0.48 | 0.465 | 0.381 | 0.172 | 0.169 | 0.0435 |  | 
2 | CC1(C)CCC(CN2CCN(c3ccc(C(=O)NS(=O)(=O)c4ccc(NCC5CCOCC5)c([N+](=O)[O-])c4)c(Oc4cnc5[nH]ccc5c4)c3)CC2)=C(c2ccc(Cl)cc2)C1 [Venetoclax] + C[C@@H]1COCCN1C2=NC(=NC(=C2)C3(CC3)[S@](=N)(=O)C)C4=C5C=CNC5=NC=C4 [AZD6738] (first compound max 1 µM, 7x7, partner max 10 µM) | 0.668 | 1 |  | 0.336 | 0.7 | 0.892 | 0.454 | 0.791 | 0.933 | 0.494 | 0.666 | 0.973 | 0.725 | 0.926 | 0.718 | 0.571 | 0.411 |  | 0.26 | -0.0286
3 | CC1(C)CCC(CN2CCN(c3ccc(C(=O)NS(=O)(=O)c4ccc(NCC5CCOCC5)c([N+](=O)[O-])c4)c(Oc4cnc5[nH]ccc5c4)c3)CC2)=C(c2ccc(Cl)cc2)C1 [Venetoclax] + Cc1cc2ncnn2cc1Nc1ncc2c(n1)n(C1CCOCC1)c(=O)n2C [AZD7648] (first compound max 1 µM, 7x7, partner max 10 µM) | 0.43 | 0.967 |  | 0.265 | 0.59 | 0.353 | 0.248 | 0.327 | 0.516 | 0.201 | 0.396 | 0.47 | 0.247 | 0.543 | 0.222 | 0.284 | 0.0854 |  | 0.221 | -0.0443
4 | COc1cccc(OCCCN)c1-c1cc(Nc2cnc(C#N)cn2)n[nH]1 [Prexasertib] + Cc1cc2ncnn2cc1Nc1ncc2c(n1)n(C1CCOCC1)c(=O)n2C [AZD7648] (first compound max 1 µM, 7x7, partner max 10 µM) | 0.762 | 0.872 |  | 0.312 | 0.735 | 0.806 | 0.61 | 0.966 | 0.991 | 0.921 | 0.753 | 1 | 0.947 | 0.755 | 0.72 | 0.477 | 0.704 |  | 0.344 | -0.0417
5 | CC1(C)CCC(CN2CCN(c3ccc(C(=O)NS(=O)(=O)c4ccc(NCC5CCOCC5)c([N+](=O)[O-])c4)c(Oc4cnc5[nH]ccc5c4)c3)CC2)=C(c2ccc(Cl)cc2)C1 [Venetoclax] + C=CCn1c(=O)c2cnc(Nc3ccc(N4CCN(C)CC4)cc3)nc2n1-c1cccc(C(C)(C)O)n1 [AZD1775] (first compound max 1 µM, partner max 1 µM) | 0.595 | 1 |  | 0.452 | 0.92 | 0.728 | 0.401 | 0.693 | 1 | 0.626 | 0.546 | 0.977 | 0.663 | 0.899 | 0.509 | 0.473 | 0.36 |  | 0.183 | -0.0875
6 | COc1cccc(OCCCN)c1-c1cc(Nc2cnc(C#N)cn2)n[nH]1 [Prexasertib] + CCc1c2c(nc3ccc(O)cc13)-c1cc3c(c(=O)n1C2)COC(=O)[C@]3(O)CC [SN-38] (first compound max 1 µM, 7x7, partner max 0.3 µM) | 0.962 | 1 |  | 0.295 | 1 | 0.857 | 0.837 | 0.981 | 0.997 | 0.964 | 0.714 | 0.999 | 0.987 | 0.957 | 0.912 | 0.85 | 0.741 |  | 0.363 | -0.069
7 | CC1(C)CCC(CN2CCN(c3ccc(C(=O)NS(=O)(=O)c4ccc(NCC5CCOCC5)c([N+](=O)[O-])c4)c(Oc4cnc5[nH]ccc5c4)c3)CC2)=C(c2ccc(Cl)cc2)C1 [Venetoclax] + Cn1cnc2c(F)c(Nc3ccc(Br)cc3Cl)c(C(=O)NOCCO)cc21 [Selumetinib] (first compound max 1 µM, 7x7, partner max 3 µM) | 0.496 | 0.981 |  | 0.362 | 0.153 | 0.239 | 0.553 | 0.462 | 0.408 | 0.148 | 0.941 | 0.137 | 0.115 | 0.605 | 0.654 | 0.356 | 0.352 |  | 0.385 | -0.0317
8 | COc1cccc(OCCCN)c1-c1cc(Nc2cnc(C#N)cn2)n[nH]1 [Prexasertib] + CN(C)CCCOc1ccc(-c2ccc3ncc4c(c3c2)n(C2CCOCC2)c(=O)n4C)cn1 [AZD0156] (first compound max 1 µM, 7x7, partner max 1 µM) | 0.768 | 0.918 |  | 0.32 | 0.685 | 0.785 | 0.624 | 0.976 | 0.984 | 0.906 | 0.774 | 1 | 0.965 | 0.8 | 0.744 | 0.315 | 0.716 |  | 0.314 | -0.0325
